According to ChEMBL document CHEMBL3758087, “7TM X-ray structures for class C GPCRs as new drug-discovery tools. 1. mGluR5” (Bioorg Med Chem Lett, 2016):
Each block holds one molecule with its values, some of them ahead of it.

Legend:
[1] = target: T1, Metabotropic glutamate receptor 5 (Rattus norvegicus, UniProt P31424); assay: Antagonist activity at rat mGluR5 expressed in HEK293 cells assessed as inhibition of glutamate-induced calcium mobilization by Fluo-4 dye-based fluorescence assay; assay type: functional, cell-based
[2] = target: T1, Metabotropic glutamate receptor 5; assay: Displacement of [3H]methoxy-PEPgamma from mGluR5 in rat cerebral cortex membranes after 60 mins by scintillation counting analysis; assay type: cell membranes, Membrane
[3] = target: T2, Metabotropic glutamate receptor 5 (Homo sapiens, UniProt P41594); assay: Antagonist activity at human mGluR5 expressed in CHO cells assessed as inhibition of glutamate-induced effect by aequorin bioluminescence assay; assay type: cell-based
[4] = target: T2, Metabotropic glutamate receptor 5; assay: Antagonist activity at mGluR5 (unknown origin)
[5] = target: T2, Metabotropic glutamate receptor 5; assay: Antagonist activity at human mGluR5d by fluo-3-based FLIPR assay

T2 sequence (P41594 whole entry): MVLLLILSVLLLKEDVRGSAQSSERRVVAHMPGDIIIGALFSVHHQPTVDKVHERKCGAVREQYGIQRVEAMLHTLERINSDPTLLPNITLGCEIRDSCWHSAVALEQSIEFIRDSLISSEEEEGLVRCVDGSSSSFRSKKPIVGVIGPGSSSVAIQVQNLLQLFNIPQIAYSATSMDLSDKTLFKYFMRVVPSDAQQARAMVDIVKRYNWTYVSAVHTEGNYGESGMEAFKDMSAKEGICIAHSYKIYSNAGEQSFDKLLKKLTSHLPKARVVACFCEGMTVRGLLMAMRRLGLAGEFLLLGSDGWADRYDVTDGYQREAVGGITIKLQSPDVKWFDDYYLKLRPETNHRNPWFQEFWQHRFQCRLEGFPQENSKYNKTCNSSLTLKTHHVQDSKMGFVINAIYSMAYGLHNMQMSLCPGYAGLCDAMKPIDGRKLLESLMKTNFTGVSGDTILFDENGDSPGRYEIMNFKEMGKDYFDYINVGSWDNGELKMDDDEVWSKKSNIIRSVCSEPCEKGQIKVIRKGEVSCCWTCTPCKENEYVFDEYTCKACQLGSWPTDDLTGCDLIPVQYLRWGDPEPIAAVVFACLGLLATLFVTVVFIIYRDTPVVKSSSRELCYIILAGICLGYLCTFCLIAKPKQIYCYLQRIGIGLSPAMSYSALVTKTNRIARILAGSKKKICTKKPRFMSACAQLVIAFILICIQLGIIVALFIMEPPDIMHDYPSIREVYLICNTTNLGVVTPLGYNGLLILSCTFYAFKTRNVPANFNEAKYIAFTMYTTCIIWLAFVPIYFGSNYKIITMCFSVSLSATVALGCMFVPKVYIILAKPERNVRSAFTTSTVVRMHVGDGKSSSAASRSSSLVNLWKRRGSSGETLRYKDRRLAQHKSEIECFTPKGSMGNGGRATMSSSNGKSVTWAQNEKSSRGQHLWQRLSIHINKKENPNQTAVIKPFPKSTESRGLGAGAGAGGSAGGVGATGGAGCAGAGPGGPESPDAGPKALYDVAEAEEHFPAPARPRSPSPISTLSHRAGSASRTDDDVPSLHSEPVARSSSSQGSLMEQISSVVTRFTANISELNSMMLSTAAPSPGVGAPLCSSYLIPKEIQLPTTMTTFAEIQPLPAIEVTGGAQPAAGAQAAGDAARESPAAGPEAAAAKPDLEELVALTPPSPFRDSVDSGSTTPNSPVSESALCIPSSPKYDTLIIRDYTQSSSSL
T1 sequence (P31424 whole entry): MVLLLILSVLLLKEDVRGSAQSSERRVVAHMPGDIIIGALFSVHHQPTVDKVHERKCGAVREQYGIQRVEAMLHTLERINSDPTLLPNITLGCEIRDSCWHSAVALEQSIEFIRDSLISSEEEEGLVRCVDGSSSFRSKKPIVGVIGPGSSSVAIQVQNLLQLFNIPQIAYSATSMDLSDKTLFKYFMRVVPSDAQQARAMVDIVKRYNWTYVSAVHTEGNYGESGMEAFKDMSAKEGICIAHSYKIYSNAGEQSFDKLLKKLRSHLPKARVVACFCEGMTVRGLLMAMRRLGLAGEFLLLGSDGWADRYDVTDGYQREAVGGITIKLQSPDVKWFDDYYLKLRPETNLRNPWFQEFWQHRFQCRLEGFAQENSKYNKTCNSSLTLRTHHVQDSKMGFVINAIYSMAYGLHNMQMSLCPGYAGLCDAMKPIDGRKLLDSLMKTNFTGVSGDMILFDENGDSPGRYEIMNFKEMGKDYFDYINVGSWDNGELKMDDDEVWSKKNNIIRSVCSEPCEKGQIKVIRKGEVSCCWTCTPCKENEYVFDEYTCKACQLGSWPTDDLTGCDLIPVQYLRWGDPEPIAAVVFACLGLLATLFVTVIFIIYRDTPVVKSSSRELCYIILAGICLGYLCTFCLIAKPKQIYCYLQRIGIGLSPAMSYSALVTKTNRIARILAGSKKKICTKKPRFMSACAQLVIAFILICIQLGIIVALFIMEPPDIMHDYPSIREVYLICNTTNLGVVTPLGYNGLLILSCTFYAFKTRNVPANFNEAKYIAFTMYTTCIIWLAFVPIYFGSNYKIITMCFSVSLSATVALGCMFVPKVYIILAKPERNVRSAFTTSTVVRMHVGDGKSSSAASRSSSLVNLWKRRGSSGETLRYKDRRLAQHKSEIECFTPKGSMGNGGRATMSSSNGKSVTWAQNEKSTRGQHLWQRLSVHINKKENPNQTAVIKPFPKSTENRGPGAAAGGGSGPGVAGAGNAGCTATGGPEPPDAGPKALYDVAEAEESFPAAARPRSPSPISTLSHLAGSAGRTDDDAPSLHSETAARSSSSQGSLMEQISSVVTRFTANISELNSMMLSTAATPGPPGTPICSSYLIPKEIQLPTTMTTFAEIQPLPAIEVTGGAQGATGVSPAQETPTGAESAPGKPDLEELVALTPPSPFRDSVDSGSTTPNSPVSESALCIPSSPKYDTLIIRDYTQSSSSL

Structure (SMILES): Cc1cccc(C(=O)NC23CC4CC(C2)CC(NC(=O)c2cccc(C)n2)(C4)C3)n1
Ki [2]: 6.7 nM

Structure (SMILES): O=C(Nc1ccnc(Cl)c1)c1nnn2c1CSc1c-2ccc(F)c1Cl
IC50 [3]: 0.79 nM

Continued, values first:

IC50 [1]: 91 nM
Structure (SMILES): N#Cc1cnc(Nc2nc3ccccc3o2)nc1-c1ccc(F)cc1

IC50 [4]: 10 nM
Structure (SMILES): N#Cc1nccnc1N1CCN2[C@@H](CC[C@@H]2c2nnn(-c3cccc(Cl)c3)n2)C1 (racemic)

IC50 [5]: 20 nM
Structure (SMILES): N#Cc1cccc(C#C[C@H]2CCC[C@H]3CN(c4ncccc4C#N)CCN32)c1 (racemic)
